Earlier results in patent publication US20070243232A1, “Method to treat and prevent asthma attacks using throat lozenges and orally-retained liquids containing magnesium” (priority 2006, published 2007).

Details: injections in the 200 mg range

## O=S(=O)([O-])[O-].[Mg+2] [magnesium sulfate]
  efficacy in treating asthma and effecting a rescue: modestly effective
